Measured values published in patent publication US4410716A, “Dibenzo[a,d]cycloheptene derivatives and process for production thereof” (Toa Eiyo Kagaku Kogyo Co. Ltd., priority 1979, dated 1983).
“Also recorded” adds a separate entry of the source. Where two headings read alike, the source gives them in different places.

How the values were obtained:
[1] = test system: edema (carrageenin, hind paw); test: Anti-inflammatory activity: carrageenin hind paw edema in rats, oral administration; assay type: in vivo, male Donryu rats; conditions: for inhibition in vivo at 25 mg/kg / inhibition in vivo at 100 mg/kg / ED40 / inhibition in vivo at 5 mg/kg / inhibition in vivo at 20 mg/kg / inhibition in vivo at 50 mg/kg / inhibition in vivo at 1 mg/kg / inhibition in vivo at 10 mg/kg: Rattus norvegicus; for inhibition in vivo at 25 mg/kg: 25 mg/kg oral; for inhibition in vivo at 25 mg/kg / inhibition in vivo at 100 mg/kg / inhibition in vivo at 5 mg/kg / inhibition in vivo at 20 mg/kg / inhibition in vivo at 50 mg/kg / inhibition in vivo at 1 mg/kg / inhibition in vivo at 10 mg/kg: read-out: Percent edema inhibition; for inhibition in vivo at 100 mg/kg: 100 mg/kg oral; for ED40: dose causing 40% inhibition, dose-response line, read-out: ED40 value; for ED40 / anti-inflammatory activity (in words): oral; for anti-inflammatory activity (in words): carrageenin edema, rat; for inhibition in vivo at 5 mg/kg: 5 mg/kg oral; for inhibition in vivo at 20 mg/kg: 20 mg/kg oral; for inhibition in vivo at 50 mg/kg: 50 mg/kg oral; for inhibition in vivo at 1 mg/kg: 1 mg/kg oral; for inhibition in vivo at 10 mg/kg: 10 mg/kg oral
Experimental: (§1) The anti-inflammatory activity, analgesic activity and ulcerogenic activity of the novel dibenzo[a,d]cycloheptene derivatives of this invention were tested by the following methods.
Each of test compounds was orally administered to groups of male Donryu rats weighing 130 to 150 g (8 to 10 rats per group), and one hour later, 0.1 ml of a 1% carrageenin solution was injected subcutaneously into the hind paw of each rat. After injection of carrageenin, the volume of the paw was measured at predetermined periods, and the percent inhibition against a control group was calculated.

[2] = test system: gastric wall; test: in vivo; conditions: rat, in vivo, po
Experimental: as §1
(§2) Sixteen hours later, the rats were sacrificed under ether anesthesia.
(§3) *Calculated by the Adami's method.
(§4) **Calculated by the LitchfieldWilcoxon's method. The parenthesized values
(§5) show 95% confidence limits.

[3] = test system: writhing syndromes (acetic acid); test: Analgesic activity: acetic acid writhing in mice; assay type: in vivo, male ICR mice
Experimental: as §1
Using male ICR mice weighing 25 to 30 g (10 mice per group), there was measured the number of writhing syndromes induced when a 1% solution of acetic acid was intraperitoneally injected at a dose of 10 ml/kg. The percent inhibition against a control group was calculated.

[4] = in vivo; conditions: rat, in vivo, po
Experimental: as §1, §2, §3, §4, §5

`O=C(O)Cc1ccc2c(c1)C(=O)Cc1ccccc1C2` [Ia, 10,11-dihydro-11-oxo-5H-dibenzo[a,d]cycloheptene-2-acetic acid] gave an inhibition in vivo at 25 mg/kg ([1]; 1 hour after carrageenin) of 28.2%, an inhibition in vivo at 25 mg/kg ([1]; 2 hours after carrageenin) of 41.8% and an inhibition in vivo at 25 mg/kg ([1]; 3 hours after carrageenin) of 44.5%. It also gave an inhibition in vivo at 25 mg/kg ([1]; 4 hours after carrageenin) of 41%, an inhibition in vivo at 100 mg/kg ([1]; 1 hour after carrageenin) of 33% and an inhibition in vivo at 100 mg/kg ([1]; 2 hours after carrageenin) of 50%. For the same compound, the inhibition in vivo at 100 mg/kg ([1]; 3 hours after carrageenin) was 53.7%, the inhibition in vivo at 100 mg/kg ([1]; 4 hours after carrageenin) was 52.2% and the ED40 ([1]; 3 hours after carrageenin) was 13 mg/kg. The “anti-inflammatory activity (in words)” value [1] was “excellent anti-inflammatory activity; also recorded: evidently show anti-inflammatory activity although their activity is weaker than that of indomethacin” and the “ulcerogenic activity (in words)” value [2] was “much weaker than that of indomethacin”.
`O=C(O)Cc1ccc2c(c1)C(=O)Cc1cc(F)ccc1C2` [Ib, 8-fluoro-10,11-dihydro-11-oxo-5H-dibenzo[a,d]cycloheptene-2-acetic acid] showed an inhibition in vivo at 25 mg/kg ([1]; 1 hour after carrageenin) of 32.4%, an inhibition in vivo at 25 mg/kg ([1]; 2 hours after carrageenin) of 45.3% and an inhibition in vivo at 25 mg/kg ([1]; 3 hours after carrageenin) of 43.4%. The inhibition in vivo at 25 mg/kg ([1]; 4 hours after carrageenin) was 41.9%, the inhibition in vivo at 100 mg/kg ([1]; 1 hour after carrageenin) was 44.1% and the inhibition in vivo at 100 mg/kg ([1]; 2 hours after carrageenin) was 57.9%. It also gave an inhibition in vivo at 100 mg/kg ([1]; 3 hours after carrageenin) of 52.6%, an inhibition in vivo at 100 mg/kg ([1]; 4 hours after carrageenin) of 53% and an ED40 ([1]; 3 hours after carrageenin) of 15 mg/kg. The “anti-inflammatory activity (in words)” value [1] was “excellent anti-inflammatory activity; also recorded: evidently show anti-inflammatory activity although their activity is weaker than that of indomethacin” and the “ulcerogenic activity (in words)” value [2] was “much weaker than that of indomethacin”.
For `O=C(O)Cc1ccc2c(c1)Cc1ccccc1CC2=O` [Ic, 10,11-dihydro-11-oxo-5H-dibenzo[a,d]cycloheptene-3-acetic acid], the inhibition in vivo at 25 mg/kg ([1]; 1 hour after carrageenin) was 32.8%, the inhibition in vivo at 25 mg/kg ([1]; 2 hours after carrageenin) was 29.4% and the inhibition in vivo at 25 mg/kg ([1]; 3 hours after carrageenin) was 25.5%. For the same compound, the inhibition in vivo at 25 mg/kg ([1]; 4 hours after carrageenin) was 24%, the inhibition in vivo at 100 mg/kg ([1]; 1 hour after carrageenin) was 51.4% and the inhibition in vivo at 100 mg/kg ([1]; 2 hours after carrageenin) was 44.7%. It also gave an inhibition in vivo at 100 mg/kg ([1]; 3 hours after carrageenin) of 40.7%, an inhibition in vivo at 100 mg/kg ([1]; 4 hours after carrageenin) of 39.3% and an ED40 ([1]; 3 hours after carrageenin) of 94 mg/kg. For the same compound, the “anti-inflammatory activity (in words)” value [1] was “excellent anti-inflammatory activity; also recorded: evidently show anti-inflammatory activity although their activity is weaker than that of indomethacin”.
`O=C(O)Cc1ccc2c(c1)CC(=O)c1ccccc1C2` [Id, 10,11-dihydro-10-oxo-5H-dibenzo[a,d]cycloheptene-2-acetic acid] gave an inhibition in vivo at 25 mg/kg ([1]; 1 hour after carrageenin) of 36%, an inhibition in vivo at 25 mg/kg ([1]; 2 hours after carrageenin) of 36% and an inhibition in vivo at 25 mg/kg ([1]; 3 hours after carrageenin) of 21.4%. For the same compound, the inhibition in vivo at 25 mg/kg ([1]; 4 hours after carrageenin) was 18.4%, the inhibition in vivo at 100 mg/kg ([1]; 1 hour after carrageenin) was 44.6% and the inhibition in vivo at 100 mg/kg ([1]; 2 hours after carrageenin) was 39%. It also gave an inhibition in vivo at 100 mg/kg ([1]; 3 hours after carrageenin) of 28.1% and an inhibition in vivo at 100 mg/kg ([1]; 4 hours after carrageenin) of 21.4%.
`O=C(O)Cc1ccc2c(c1)CC(=O)c1cc(Cl)ccc1C2` [Ie, 8-chloro-10,11-dihydro-10-oxo-5H-dibenzo[a,d]cycloheptene-2-acetic acid] gave an inhibition in vivo at 25 mg/kg ([1]; 1 hour after carrageenin) of 4.5%, an inhibition in vivo at 25 mg/kg ([1]; 2 hours after carrageenin) of 8.6% and an inhibition in vivo at 25 mg/kg ([1]; 3 hours after carrageenin) of 3%. It also gave an inhibition in vivo at 25 mg/kg ([1]; 4 hours after carrageenin) of 2.3%, an inhibition in vivo at 100 mg/kg ([1]; 1 hour after carrageenin) of -0.7% and an inhibition in vivo at 100 mg/kg ([1]; 2 hours after carrageenin) of 1.3%. The inhibition in vivo at 100 mg/kg ([1]; 3 hours after carrageenin) was -4.2% and the inhibition in vivo at 100 mg/kg ([1]; 4 hours after carrageenin) was -1.8%.
Compound `O=C(O)Cc1ccc2c(c1)Cc1ccccc1C(=O)C2` [If, 10,11-dihydro-10-oxo-5H-dibenzo[a,d]cycloheptene-3-acetic acid] has an inhibition in vivo at 25 mg/kg ([1]; 1 hour after carrageenin) of -22.6%, an inhibition in vivo at 25 mg/kg ([1]; 2 hours after carrageenin) of -16.8% and an inhibition in vivo at 25 mg/kg ([1]; 3 hours after carrageenin) of -12.3%. The inhibition in vivo at 25 mg/kg ([1]; 4 hours after carrageenin) was -8.7%, the inhibition in vivo at 100 mg/kg ([1]; 1 hour after carrageenin) was -23.5% and the inhibition in vivo at 100 mg/kg ([1]; 2 hours after carrageenin) was -21.4%. It also gave an inhibition in vivo at 100 mg/kg ([1]; 3 hours after carrageenin) of -9.1% and an inhibition in vivo at 100 mg/kg ([1]; 4 hours after carrageenin) of -5.5%.
For `COC1=Cc2ccccc2Cc2ccc(CC(=O)O)cc21` [Ig, 11-methoxy-5H-dibenzo[a,d]cycloheptene-2-acetic acid], the inhibition in vivo at 100 mg/kg ([1]; 1 hour after carrageenin) was 25.5%, the inhibition in vivo at 100 mg/kg ([1]; 2 hours after carrageenin) was 40.6% and the inhibition in vivo at 100 mg/kg ([1]; 3 hours after carrageenin) was 42.6%. For the same compound, the inhibition in vivo at 100 mg/kg ([1]; 4 hours after carrageenin) was 37.1%.
Compound `COC1=Cc2ccccc2Cc2ccc(C(C)C(=O)O)cc21` (stereo not drawn) [Ih, 2-(11-methoxy-5H-dibenzo[a,d]cyclohepten-2-yl)propionic acid] has an inhibition in vivo at 5 mg/kg ([1]; 1 hour after carrageenin) of 18.4%, an inhibition in vivo at 5 mg/kg ([1]; 2 hours after carrageenin) of 24.7% and an inhibition in vivo at 5 mg/kg ([1]; 3 hours after carrageenin) of 12%. The inhibition in vivo at 5 mg/kg ([1]; 4 hours after carrageenin) was 12.6%, the inhibition in vivo at 20 mg/kg ([1]; 1 hour after carrageenin) was 28.1% and the inhibition in vivo at 20 mg/kg ([1]; 2 hours after carrageenin) was 22.9%. The inhibition in vivo at 20 mg/kg ([1]; 3 hours after carrageenin) was 26.8%, the inhibition in vivo at 20 mg/kg ([1]; 4 hours after carrageenin) was 26.8% and the inhibition in vivo at 50 mg/kg ([1]; 1 hour after carrageenin) was 35.6%. For the same compound, the inhibition in vivo at 50 mg/kg ([1]; 2 hours after carrageenin) was 32.9%, the inhibition in vivo at 50 mg/kg ([1]; 3 hours after carrageenin) was 35.4% and the inhibition in vivo at 50 mg/kg ([1]; 4 hours after carrageenin) was 35.7%. The ED40 ([1]; 3 hours after carrageenin) was 77 mg/kg and the “anti-inflammatory activity (in words)” value [1] was “excellent anti-inflammatory activity; also recorded: evidently show anti-inflammatory activity although their activity is weaker than that of indomethacin”.
Compound `CC(C(=O)O)c1ccc2c(c1)C(=O)Cc1ccccc1C2` (stereo not drawn) [compound Ii, 2-(10,11-dihydro-11-oxo-5H-dibenzo[a,d]cyclohepten-2-yl)propionic acid] has an inhibition in vivo at 1 mg/kg ([1]; 1 hour after carrageenin) of 34.4%, an inhibition in vivo at 1 mg/kg ([1]; 2 hours after carrageenin) of 30.6% and an inhibition in vivo at 1 mg/kg ([1]; 3 hours after carrageenin) of 32.4%. For the same compound, the inhibition in vivo at 1 mg/kg ([1]; 4 hours after carrageenin) was 32.4%, the inhibition in vivo at 5 mg/kg ([1]; 1 hour after carrageenin) was 35.8% and the inhibition in vivo at 5 mg/kg ([1]; 2 hours after carrageenin) was 54%. It also gave an inhibition in vivo at 5 mg/kg ([1]; 3 hours after carrageenin) of 51.7%, an inhibition in vivo at 5 mg/kg ([1]; 4 hours after carrageenin) of 50.9% and an inhibition in vivo at 10 mg/kg ([1]; 1 hour after carrageenin) of 50%. For the same compound, the inhibition in vivo at 10 mg/kg ([1]; 2 hours after carrageenin) was 55%, the inhibition in vivo at 10 mg/kg ([1]; 3 hours after carrageenin) was 54.6% and the inhibition in vivo at 10 mg/kg ([1]; 4 hours after carrageenin) was 54.6%. The ED40 ([1]; 3 hours after carrageenin) was 1.9 mg/kg, the “anti-inflammatory activity (in words)” value [1] was “excellent anti-inflammatory activity; also recorded: stronger than that of indomethacin; also recorded: very potent anti-inflammatory activity” and the “Inhibition (writhing)” value ([3]; 10.0 mg/kg) was 14.0%. The “Number of writhing syndromes (Mean ± SE)” value ([3]; 10.0 mg/kg) was 19.7 ± 1.77, the “Inhibition (writhing)” value ([3]; 20.0 mg/kg) was 33.6% and the “Number of writhing syndromes (Mean ± SE)” value ([3]; 20.0 mg/kg) was 15.2 ± 1.28. The “Inhibition (writhing)” value ([3]; 40.0 mg/kg) was 45.4%, the “Number of writhing syndromes (Mean ± SE)” value ([3]; 40.0 mg/kg) was 12.5 ± 1.65 and the “Inhibition (writhing)” value ([3]; 80.0 mg/kg) was 57.6%. The “Number of writhing syndromes (Mean ± SE)” value ([3]; 80.0 mg/kg) was 9.7 ± 1.93, the ED50 ([3]; Mus musculus, po, dose causing 50% inhibition of writhing, dose-response line, read-out: ED50 value) was 52 mg/kg and the “ED50 value relative to that of indomethacin” value ([3]; writhing, mouse) was “ten times”. For the same compound, the “analgesic activity (in words)” value ([3]; writhing, mouse) was “weak analgesic activity”, the “analgesic activity relative to indomethacin” value ([3]; writhing, mouse) was “one-tenth of that of indomethacin” and the TD50 at 16 h [4] was 15 mg/kg. For the same compound, the selectivity ratio [4] was 7.9.
